Values after ≈ are worked out from the molar mass of the structure shown.
Columns and labels:
Assay type in all cases: functional
Candida albicans = assay: Antimicrobial activity against Candida albicans TA
Escherichia coli [1] = assay: Antimicrobial activity against Escherichia coli 0-111 after 2 days; settings: 48 h
Escherichia coli [2] = assay: Antimicrobial activity against Escherichia coli NIHJ JC-2 after 2 days; settings: 48 h
Klebsiella pneumoniae = assay: Antimicrobial activity against Klebsiella pneumoniae DA after 2 days; settings: 48 h

In the case of `CN1[C@@H]([C@@H]2SSC[C@@H]2O)CC[C@@H]1[C@@H]1SSC[C@@H]1O` [GERRARDINE], the MIC (Candida albicans) is reported as 50 µg/mL (≈ 154 µM), the MIC (Escherichia coli [1]) is reported as 100 µg/mL (≈ 307 µM) and the MIC (Escherichia coli [2]) is reported as 100 µg/mL (≈ 307 µM). It also gave an MIC (Klebsiella pneumoniae) of 100 µg/mL (≈ 307 µM).
